# According to EP0740252A2, “Apparatus, method, and standard curve for measuring clearance” (KUREHA KAGAKU KOGYO KABUSHIKI KAISHA, priority 1995, dated 1996):
# Several values for one entry are separate records, joined by “and”; a condition that tells them apart may be missing. Equal entries are not always repeated.
# Legend:
# [1] = Meglumine iothalamate clearance from one plasma sample by first standard function, dog; assay type: in vivo, female beagle dogs; conditions: healthy dog 1919 (two tests), first standard function (Fig. 18), per blood collection time (20-90 min)
# Method: A first standard function [CL × T - Cp/D curve] was formed following the same procedures as in Example 1. The first clearance calculation program 34 was executed. In this execution, the clearances of the four dogs (two tests were conducted for dog Nos. 1919 and 1367 at an interval of two months) in Example 12 were calculated by the first standard function (Fig. 18) obtained in Example 12, using the data for the respective blood collection times (except for the values obtained 5 min after the administration). More specifically, the ratio values of the meglumine iothalamate concentrations (Cp) in the plasma samples corresponding to the respective blood collection times to the meglumine iothalamate dose (D) were calculated, and the products of the clearance (CL) and the blood collection times (T) were calculated from the first standard function using the ratio values. The products were divided by the blood collection times (T), respectively, thereby obtaining the clearances (CL).
# [2] = Meglumine iothalamate clearance by AUC method, dog; assay type: in vivo, female beagle dogs; conditions: healthy dog 1919 (two tests at an interval of two months), 3% meglumine iothalamate solution 0.3 mℓ/kg i.v.
# Method: A total of […] female beagle dogs (body weight: 8.5 to 14 kg) consisting of one healthy dog (dog No. 1919), three partially nephrectomized dogs (chronic renal failure model) (dog Nos. 1367, 1253, and 1104) were used.
# A 3% inulin-containing iothalamate solution was administered once in the amount of 0.3 mℓ/kg to each beagle dog from its foreleg vein. The meglumine iothalamate in the 3% inulin-containing iothalamate solution was obtained by diluting a conray injection solution (60 W/V%) (meglumine iothalamate injection solution of the Japanese Pharmacopoeia, available from DAIICHI PHARMACEUTICAL CO., LTD.) with saline to adjust the concentration to 3%.
# Blood collection operations were performed five times with intervals after the administration. The blood collection times were, e.g., 5 min, 20 min, 40 min, 60 min, and 90 min after the administration for the healthy dog, and, e.g., 5 min, 40 min, 80 min, 120 min, and 180 min after the administration for other dogs.
# The concentration of meglumine iothalamate in the plasma was measured as follows. 400 µℓ of a 0.1N-HCl-methanol (1 : 9) solution mixture were added to 100 µℓ of a dog plasma sample, and the resultant solution was stirred well and subjected to centrifugal separation at 16,000 rpm for 10 min. The resultant supernatant was analyzed by liquid chromatography. […]
smiles,measurement,setting,value
"CNC(=O)c1c(I)c(NC(C)=O)c(I)c(C(=O)O)c1I [Iothalamic Acid, N-methylglucamine-5-acetamido-2,4,6-triiodo-N-methylisophthalate]",clearance,"[1]; female, beagle, dog, plasma, intravenous, 0.3 mℓ/kg, read-out: Method of Present Invention: Clearance (2)",52.1 mL/min
same,Method of Present Invention: Clearance (2),[1]; blood collected at 20 min,57.4 mL/min
same,Method of Present Invention: Clearance (2),[1]; blood collected at 40 min,53.0 mL/min
same,Method of Present Invention: Clearance (2),[1]; blood collected at 50 min,48.9 mL/min
same,Method of Present Invention: Clearance (2),[1]; blood collected at 60 min,52.5 mL/min
same,Method of Present Invention: Clearance (2),[1]; blood collected at 70 min,48.4 mL/min
same,Method of Present Invention: Clearance (2),[1]; blood collected at 90 min,42.0 mL/min and 43.9 mL/min
same,clearance,"[2]; female, beagle, dog, plasma, iv, 0.3 mℓ/kg, read-out: Conventional Method: Clearance (1)",45.6 mL/min
same,Conventional Method: Clearance (1),[2],49.1 mL/min
